The record followed here is patent US20050203575A1, “Skin microactivation system and method” (Unilever Home & Personal Care USA, Division of Conopco, Inc., priority 2004, published 2005).

The subject of the assay is cellular retinoic acid binding protein II (CRABP II). Put plainly: Clinical trial: CRABP II in human epidermis after topical retinol with or without microneedle treatment (Western blotting). In kind it is in vivo. The note with it: once a day for four days. An excerpt:
Ten subjects between the ages of 25 and 50 were recruited into a clinical trial to test the efficacy of microneedles 58 after having given informed consent to a protocol approved by an internal review board. Needles 58 that are acupuncture needles (Seirin, 0.12 mm×30 mm) were fixed in narrow diameter plastic tubes, i.e., positioning collars 60, with adhesive so that needle tips protruded approximately 250 microns beyond the end of positioning collar 60. This arrangement prevented excessive penetration during use. The protocol provided for the application on the skin of the lower back of a vehicle alone or vehicle containing either 0.05% or 0.1% retinol. In vehicle alone sites and 0.05% retinol sites microneedles 58 were applied at a density of 100 strikes per square centimeter. Adhesive rings with an internal area of 1.5 square centimeters were used to define the treatment areas. Microneedle device 10 was held in the operator's hand and lightly impacted on the subject's skin. Aliquots of twenty microliters of treatment solution were applied to the relevant sites immediately after microneedling. Sites were treated once a day for four days. On the fifth day epidermal samples were taken with an abrasive probe and placed in extraction buffer (see above). Samples were analysed with polyacrylamide gel electrophoresis and Western blotting for the presence of cellular retinoic acid binding protein II (CRABP II), a protein considered to be a marker for retinoid activity in skin.

Each structure is given as a SMILES string.

In the case of `CC1=C(/C=C/C(C)=C/C=C/C(C)=C/CO)C(C)(C)CCC1` [retinol], under “microneedles 100 strikes per square centimeter + 0.05% retinol, P<0.05”, the “CRABP II expression in epidermis, microneedle + 0.05% retinol versus 0.05% retinol alone” value is “increased CRABP II expression above that seen with 0.05% retinol alone”. Besides, for the setting “microneedles 100 strikes per square centimeter + 0.05% retinol, statistically significant”, the “CRABP II expression elevation, microneedles + 0.05% retinol versus 0.1% retinol alone” value is recorded as “greater than that associated with the 0.1% retinol alone treatment”. Further, the “CRABP II expression in epidermis” value (vehicle alone, 0.05% or 0.1% retinol on skin of lower back, sampled on fifth day) was “dose-dependent increase in CRABP II”.
